Assay results from patent US9243031B2, “Complex-forming compounds” (priority 2011, dated 2016).
“Also recorded” adds a separate entry of the source. Read-outs that look alike come from different tables or passages of the source.

Assays:
[1] = Quantum chemical calculation of the Ca2+ ion changing process (Gaussian09, B3LYP/LANL2DZ); details: ratio of calculated RH values
Method: Since there is no appropriate analytical method for the measurement of the complex-forming properties of these compounds with sufficient accuracy, we determined the complex-forming constants compared to the calcium ion complexes with high level quantum chemical calculations. The calculations were performed using Gaussian09 software on B3LYP/LANL2DZ theoretical level. In course of the calculations frequency calculations were also performed from which thermodynamic data were also determined.
The ion binding capabilities to each of ions are compared to the calcium binding capabilities, which is shown by RH (relative complex-forming tendency).
The thermodynamic data (ΔE, ΔH, ΔG) were calculated with mathematical equations from the values of E, H and G counted on quantum chemical basis: ΔE[complex-M]=E[complex-M]+E[CaCl2.6H2O]−{E[complex-Ca]+E[MCl2.6H2O]} ΔH[complex-M]=H[complex-M]+H[CaCl2.6H2O]−{H[complex-Ca]+H[MCl2.6H2O]} ΔG[complex-M]=G[complex-M]+G[CaCl2.6H2O]−{G[complex-Ca]+G[MCl2.6H2O]}
The relative complex-forming constant (RG) compared to the Ca^2+ ion can be calculated with the following equation: […]
Since the quotient formation expectedly causes a loss of entropy coefficients, the following equation was used which is more practical due to the fluctuation of the calculated entropy coefficient: […]

[2] = Measurement of metal selectivity by HPLC-MS (ESI), ratio of metal adduct to Ca adduct signals; type: binding
Method: (§1) Therefore, the measurements of Ca—Sr ionselectivity were carried out with an AGILENT 6140 Octapol MS (mass spectrometer) equipped with an AGILENT 1200 HPLC. The ionization was carried out by using an electron-spray (ESI, MM-FS) soft ionization equipment with positive detection. During the measurements different complex-forming compounds of the formulas (P-1), P-2), (P-3) prepared with the synthesizes shown above and decorporol of the formula (XI) were added to stock solutions, then the solutions were measured with mass spectrometry.
(§2) The measuring of Ca—Sr ionselectivity was carried out with an AGILENT 6140 Octapol MS (mass spectrometer) equipped with an AGILENT 1200 HPLC. The ionization was carried out by using an electron-spray (ESI, MM-FS) soft ionization equipment with positive detection. The used field strength was 10000V, the spray temperature 220° C., Fragmentor: 70; Treshold: 500, stepsize 0.2 Da; Ionization Switch Delay: 0 ms; Polarity Switch Delay 300 ms; Gain: 1:0; Mass range: 100-1200 Da. Nitrogen gas was used. These parameters were obtained by optimization. The used HPLC column was a 30 mm long WATERS ACQUITY UPLC column with an inner diameter of 2.1 mm and filled with C18 packing of 1.8 um. The amounts of the injected samples were changed between 2-10 ul. The eluents used due to the appropriate ionization were as follows:
(§3) Eluent A: 0.395 g of NH4HCO3 dissolved in 1 l water+50 ml MeCN.
(§4) Solution A: 0.1 M Ca ion stock solution: 222.1 mg (2 mmol) of anhydrous CaCl2 are dissolved in 20 ml of distilled water.
Solution B: 0.1 M Sr ion stock solution: 533.5 mg (2 mmol) of SrCl2.6H2O are dissolved in 20 ml of distilled water.
(§5) 100 μl of A stock solution and to 100 μl of I, II, III or IV solutions 100 μl of B-G solution are added according to the Table below and the amount of the thus obtained samples are completed to 1 ml, then injected into the HPLC.
(§6) A minimal retention time of 0.75 minutes was registered in case of the tests with Decorporol. We registered the free complex-forming compound (M+H+DA), the calcium adduct (M−H^++38 Da) and the strontium complex (M−H^++86 Da) in every case. Due to the very similar chemical properties of the Ca ion and the strontium ion it is presumable that they behave similarly during ionization, therefore we have determined the selectivity compared to Ca ion by the ratio of the average mass spectrometry signals of Ca adducts to Sr adducts. In case of the measurements of the physiologically important and toxic metal ions the compound of formula (P-3) was used. The signal of the corresponding metal ion adduct was always well separated from the signal of the mother compound and from the signal of the Ca-adduct.

[3] = as above; type: binding; remark: listed apart in the source
[4] = as above; type: binding; details: for binding of Cu ion (in words): HPLC-MS
Method: as §1, §2, §3, §4
Solution C: 0.1 M Cu ion stock solution: 500.0 mg (2 mmol) of CuSO4.5H2O are dissolved in 20 ml of distilled water.
as §5, §6

[5] = as above; type: binding; details: for binding of Zn ion (in words): HPLC-MS
Method: as §1, §2, §3, §4
Solution D: 0.1 M Zn ion stock solution: 272.5 mg (2 mmol) of ZnCl2 are dissolved in 20 ml of distilled water.
as §5, §6

[6] = as above; type: binding; remark: listed apart in the source
Method: as §1
The measuring of Ca—Sr ionselectivity was carried out with an AGILENT 6140 Octapol MS (mass spectrometer) equipped with an AGILENT 1200 HPLC. The ionization was carried out by using an electron-spray (ESI, MM-FS) soft ionization equipment with positive detection. The used field strength was 10000V, the spray temperature 220° C., Fragmentor: 70; Treshold: 500, stepsize 0.2 Da; Ionization Switch Delay: 0 ms; Polarity Switch Delay 300 ms; Gain: 1:0; Mass range: 100-1200 Da. […]
A minimal retention time of 0.75 minutes was registered in case of the tests with Decorporol. […] Due to the very similar chemical properties of the Ca ion and the strontium ion it is presumable that they behave similarly during ionization, therefore we have determined the selectivity compared to Ca ion by the ratio of the average mass spectrometry signals of Ca adducts to Sr adducts. […]

[7] = as above; type: binding; details: for binding of Sn ion (in words): HPLC-MS; for M^2+/Ca^2+ rate: M = Sn
Method: as §1, §2, §3, §4
Solution E: 0.1 M Sn ion stock solution: 379.6 mg (2 mmol) of SnCl2 are dissolved in 20 ml of distillated water.
as §5, §6

[8] = as above; type: binding; details: for binding of Pb ion / palladium (in words): HPLC-MS; for M^2+/Ca^2+ rate / M^2+/Ca^2+ rate, peak of decarboxylated fragment (in brackets): M = Pd
Method: as §1, §2, §3, §4
Solution F: 0.1 M Pb ion stock solution: 217.0 mg […] of Pb(OOCCF3)2 are dissolved in 5 ml distilled water.
as §5, §6

[9] = Decarboxylation observed during the HPLC-MS measurements; type: physicochemical
Method: The decarboxylation, which is characteristic of decorporol, was shown also during the measurements.
as §2, §6
This process is well-known and leads to slow degradation of decorporol. The mono-decarboxylated and the double-decarboxylated derivatives are the main contaminants of decorporol and their solubility is very low in water, therefore beyond a certain concentration the complexes could precipitate.

[10] = mice, compound added intravenously, calcium remained; cited from earlier work
[11] = during HPLC-MS measurements with metal ions

Row | Molecule | strontium binding affinity compared to the compound of formula (XI) [1] | MS peak of the free complex-forming compound compared with the peak of its Sr complex [2] | binding of strontium ion (in words) [2] | Sr^2+/Ca^2+ rate [3] | binding of Cu ion (in words) [4] | M^2+/Ca^2+ rate ([4]; M = Cu) | binding of Zn ion (in words) [5] | M^2+/Ca^2+ rate ([5]; M = Zn) | binding of Sn ion (in words) [7] | M^2+/Ca^2+ rate [7] | binding of Pb ion / palladium (in words) [8] | M^2+/Ca^2+ rate [8] | decarboxylation [9, 11] | further results
1 | 2-(2-{16-[(1,2-Dicarboxy-ethylcarbamoil)-methyl]-1,4,10,13-tetraoxa-7,16-diaza-cyclooctadec-7-yl}-acetylamino)-succinic acid [(P-2)] | approximately 4 fold | significantly lower; also recorded: considerably smaller | stronger than Ca ion | 1.4 | – | – | – | – | – | – | – | – | – | –
2 | O=C(CN1CCOCCOCCN(CC(=O)NC(C(=O)O)C(=O)O)CCOCCOCC1)NC(C(=O)O)C(=O)O [(P-1), 2-(2-{16-[(Dicarboxymethyl-carbamoyl)-methyl]-1,4,10,13-tetraoxa-7,16-diaza-cyclooctadec-7-yl}-acetiyamino)-malonic acid] | more than 4 fold | significantly lower; also recorded: considerably smaller | – | 1.25 | – | – | – | – | – | – | – | – | – | –
3 | O=C(O)CCC(NC(=O)CN1CCOCCOCCN(CC(=O)NC(CCC(=O)O)C(=O)O)CCOCCOCC1)C(=O)O (stereo not drawn) [(P-3), 2-(2-{16-[(1,3-Dicarboxy-propylcarbamoyl)-methyl]-1,4,10,13-tetraoxa-7,16-diaza-cyclooctadec-7-yl}-acetylamino)-pentanedioic acid] | – | significantly lower; also recorded: considerably smaller | strongest; also recorded: stronger than Ca ion | 1.5 | a little stronger than Ca ion; also recorded: slightly binds | 1.1 | does not bind | ca. 0 | very strongly | 100 | very strongly | 29 | does not decarboxylate | binding of Fe ion (in words) ([6]; HPLC-MS): does not bind; M^2+/Ca^2+ rate ([6]; M = Fe): ca. 0
4 | O=C(O)C(C(=O)O)N1CCOCCOCCN(C(C(=O)O)C(=O)O)CCOCCOCC1 [Decorporol, (7,16-bis-malonate)-1,4,10,13-tetraoxa-7,16-diazacyclooctadecane-bis-malonic acid] | – | – | – | 1.2 | a bit stronger than the compound of the formula of (P-3) | 1.2 | stronger than Ca | 8 | significantly less | 22 | significantly less | 20 | significant decarboxylation | MS peak of the free complex-forming compound compared with the peak of its Sr complex ([2]; listed as decorporol): worse; also recorded: lower; M^2+/Ca^2+ rate, peak of decarboxylated fragment (in brackets) ([4]; M = Cu): 1.5; binding of Zn ion (in words) ([5]; listed as decorporol): Good binding; also recorded: stronger than Ca ions; M^2+/Ca^2+ rate, peak of decarboxylated fragment (in brackets) ([5]; M = Zn): 4; M^2+/Ca^2+ rate, peak of decarboxylated fragment (in brackets) ([8]; first bracketed peak): 29; M^2+/Ca^2+ rate, peak of decarboxylated fragment (in brackets) ([8]; second bracketed peak): 40; decarboxylation ([9]; in case of Pb ion): very strong decarboxylation process; removal of strontium from the body [10]: removed selectively
